From patent publication US4008223A, “6-Aza-3H-1,4-benzodiazepines” (Deutsche Gold- und Silber-Scheideanstalt vormals Roessler, priority 1971, dated 1977)

Key:
[1] = system: mice; assay: Cardiazol shock (anticonvulsive / anxiolytic effect); format: in vivo; details: Mus musculus, 1 h, oral, one hour before 150 mg/kg s.c. Cardiazol, 50% of animals with marked anticonvulsive effect
Description: The compounds of the present invention have a pronounced anxiolytic activity, i.e., they relieve or reduce anxiety. Such activity naturally cannot be measured directly in animals. […] A method for testing whether a compound has anticonvulsive properties and also therewith is anxiolytically active is the Cardiazol-Shock Method.
In order to compare the therapeutic value of the compounds of the present invention with the most closely related compounds in Littell U.S. Pat. No. 3,314,941 and Reeder U.S. Pat. No. 3,371,085 tests were conducted comparing the properties of the compounds of the present application and the Littell and Reeder patents in regard to anxiolytic effect (tested by Cardiazol-Shock).
The Cardiazol shock procedure was carried out according to the method of F.M. Berger et al in J. Pharmacol. Exper. Therap. Vol. 116, pages 337-342 (1956). With mice the subcutaneous injection of 150 mg/kg of Cardiazol first results in short lasting spasms, then long lasting and strong spasms and finally results in the death of all of the animals within 10 to 15 minutes. By the oral administration of the anticonvulsive acting test materials at various dosages one hour prior to the administration of the Cardiazol, the 100% lethal effect of the Cardiazol is reduced depending on the dosage. From the percentage of surviving animals in the individual test groups there was plotted graphically the dosage-effect line and from this the ED50 value was ascertained.

[2] = rotating rod test (ataxic effect); format: in vivo, mice; details: mouse, rotating rod test; mice; oral; 50% of animals show a typical ataxic effect; read-out: ED50, ataxic effect (rotating rod)
Description: (§1) Furthermore, there is given in this table the ataxic activity. The ratio of ataxic activity to the anxiolytic activity is of the greatest significance in using a material as an anxiolytic agent. This quotient should be as large as possible since an ataxic activity is undesirable. Ataxic activity means that the coordination of the muscular movements is disturbed -- ataxic disturbance of the muscular coordination. This means at the dosage at which a marked anxiolytic activity is present there should not be found a noteworthy ataxice. The toxicity, in case the data exists above the ataxic activity, is no longer important since the amount which is toxic is always considerably higher than the amount at which 50% (ED50) of the animals have an ataxic effect. The ataxic effect was measured on mice on the pattern of the rotating rod.
(§2) In the rotating rod test the animals (mice) were firest placed on a rotating rod 15 minutes after the application of the test material and then were placed on the rotating rod every 15 minutes and the animals which fell down within 2 minutes measured positive. From the number of animals which fell down expressed in per cent there were drawn time-effect curves and the areas defined by it entered as percent effect in a probability network, the dosage-effect-line prepared and the ED50 read off. The ED50 mg/kg body weight of the mouse again specifies the dosage at which 50% of all the animals show a typical ataxic effect.

[3] = system: mice; assay: rotating rod test (ataxic effect); format: in vivo; details: quotient of ED50 ataxia / ED50 Cardiazol shock; should be as large as possible
Description: as §1, §2

[4] = literature; cited from earlier work
[5] = on introduction of p-chlorine and alpha-methyl; literature; cited from earlier work
[6] = First Int. Pharmacological Meeting, Vol. 7, pages 311 et seq.; cited from earlier work

Row | SMILES | ED50 [1] [mg/kg] | TD50 [2] [mg/kg] | ratio of ataxic activity to the anxiolytic activity [3] | antihistamine activity [4] | anticholinergic activity [5] | stimulating activity [6]
1 | O=C(O)CCC(=O)OC1N=C(c2ccccc2Cl)c2nc(Cl)ccc2NC1=O (stereo not shown) [Example 12] | 7.4 | 100 | 13.5 |  |  | 
2 | CN1C(=S)CN=C(c2ccccc2Cl)c2nc(Cl)ccc21 [Example 24, 1-Methyl-5-(o-chlorophenyl)-6-aza-7-chloro-1,2-dihydro-3H-1,4-benzodiazepinthione-(2)] | 3.3 | 39 | 12.5 |  |  | 
3 | CN1C(=O)CN=C(c2ccccc2)c2nc(Cl)ccc21 [Example 17, 1-Methyl-5-phenyl-6-aza-7-chloro-1,2-dihydro-3H-1,4-benzodiazepinone-(2)] | 4.2 | 26 | 6.2 |  |  | 
4 | O=C1CN=C(c2ccccc2Cl)c2nc(Cl)ccc2N1 [Example 6, 5-(o-Chlorophenyl)-6-aza-7-chloro-1,2-dihydro-3H-1,4-benzodiazepinone-(2)] | 2.72 | 45 | 16.5 |  |  | 
5 | CN(C)CCOC(C)(c1ccccc1)c1ccc(Cl)cc1 (stereo not shown) [chlorphenoxamine] |  |  |  | reduced | strengthening | 
6 | CN(C)CCCN1c2ccccc2Sc2ccc(Cl)cc21 [Chlorpromazine] |  |  |  | practically no antihistamine activity |  | 
7 | C=CCN1C(=O)CN=C(c2ccccc2)c2nc(Cl)ccc21 [Example 18, 1-Allyl-5-phenyl-6-aza-7-chloro-1,2-dihydro-3H-1,4-benzodiazepinone-(2)] | 11 | 90 | 8.2 |  |  | 
8 | O=C1CN=C(c2ccccc2F)c2nc(Cl)ccc2N1 [Example 10, 5-(-Fluorophenyl)-6-aza-7-chloro-1,2-dihydro-3H-1,4-benzodiazepinone-(2)] | 1.63 | 17 | 10.4 |  |  | 
9 | CC1N=C(c2ccccc2)c2nc(Cl)ccc2NC1=O (racemic) [Example 4, 3-Methyl-5-phenyl-6-aza-7-chloro-1,2-dihydro-3H-1,4-benzodiazepinone-(2)] | 18 | 78 | 4.3 |  |  | 
10 | O=C1CN=C(c2ccccc2)c2nc(Cl)ccc2N1 [Example 1, 5-Phenyl-6-aza-7-chloro-1,2-dihydro-3H-1,4-benzodiazepinone-(2)] | 6.3 | 72 | 11.4 |  |  | 
11 | CN1C(=O)CN=C(c2ccccc2F)c2nc(Cl)ccc21 [Example 9, 1-Methyl-5-(o-fluorophenyl)-6-aza-7-chloro-1,2-dihydro-3H-1,4-benzodiazepinone-(2)] | 1.58 | 9.7 | 6.1 |  |  | 
12 | CC(NN)c1ccccc1 (stereo not drawn) [alpha phenyl-ethyl hydrazine] |  |  |  |  |  | strong stimulating activity
13 | O=C1CN=C(c2ccccc2)c2nc(Cl)ccc2N1CC1CC1 [Example 19] | 9.75 | 75 | 7.7 |  |  | 
14 | CC(=O)OC1N=C(c2ccccc2Cl)c2nc(Cl)ccc2N(C(C)=O)C1=O (stereo not shown) [Example 15, 1-Acetyl-3-acetoxy-5-(o-chlorophenyl)-6-aza-7-chloro-1,2-dihydro-3H-1,4-benzodiazepinone-(2)] | 15 | 100 | 6.7 |  |  | 
15 | O=C1Nc2ccc(Cl)nc2C(c2ccccc2Cl)=NC1O (stereo not shown) [Example 13, 3-Hydroxy-5-o-chlorophenyl-6-aza-7-chloro-1,2-dihydro-3H-1,4-benzodiazepinone-(2)] | 2.4 | 36 | 15.0 |  |  | 
16 | CN1C(=O)CN=C(c2ccccc2Cl)c2nc(Cl)ccc21 [Example 21, 1-Methyl-5-(o-chlorophenyl)-6-aza-7-chloro-1,2-dihydro-3H-1,4-benzodiazepinone-(2)] | 0.98 | 10 | 10.2 |  |  | 
